From patent publication US20080096924A1, “Amorphous Composition” (ONO PHARMACEUTICAL CO., LTD., priority 2004, published 2008)
In brackets after ≈: the same amount, converted by molar mass.

Columns and labels:
Solubility in water = format: physicochemical; details: crystals of compound (I) vs spray-dried amorphous powder with HPMCAS
[1] = Bioavailability on oral administration; details: in vivo, orally administered, read-out: bioavailability (BA)
CYP3A4 = CYP3A4 (Homo sapiens, UniProt P08684); assay: Metabolism by metabolic enzyme
Sequence of CYP3A4 (P08684 whole entry): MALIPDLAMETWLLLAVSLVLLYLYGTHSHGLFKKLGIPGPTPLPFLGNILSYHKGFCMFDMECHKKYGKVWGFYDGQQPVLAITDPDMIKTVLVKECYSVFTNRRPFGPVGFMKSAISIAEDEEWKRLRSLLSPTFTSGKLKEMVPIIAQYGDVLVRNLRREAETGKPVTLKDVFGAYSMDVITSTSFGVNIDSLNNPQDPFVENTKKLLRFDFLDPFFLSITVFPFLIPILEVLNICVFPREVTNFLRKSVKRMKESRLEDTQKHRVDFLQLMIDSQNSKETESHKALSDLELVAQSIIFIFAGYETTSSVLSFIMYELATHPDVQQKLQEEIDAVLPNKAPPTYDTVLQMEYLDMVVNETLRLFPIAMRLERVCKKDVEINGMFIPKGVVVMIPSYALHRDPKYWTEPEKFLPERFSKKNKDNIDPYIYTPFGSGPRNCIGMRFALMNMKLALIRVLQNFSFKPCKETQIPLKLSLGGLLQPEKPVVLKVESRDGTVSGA

N-type calcium channel = N-type calcium channel (Homo sapiens, UniProt Q00975); details: refer to Patent Document 1; cited from earlier work
Sequence of N-type calcium channel (Q00975 whole entry): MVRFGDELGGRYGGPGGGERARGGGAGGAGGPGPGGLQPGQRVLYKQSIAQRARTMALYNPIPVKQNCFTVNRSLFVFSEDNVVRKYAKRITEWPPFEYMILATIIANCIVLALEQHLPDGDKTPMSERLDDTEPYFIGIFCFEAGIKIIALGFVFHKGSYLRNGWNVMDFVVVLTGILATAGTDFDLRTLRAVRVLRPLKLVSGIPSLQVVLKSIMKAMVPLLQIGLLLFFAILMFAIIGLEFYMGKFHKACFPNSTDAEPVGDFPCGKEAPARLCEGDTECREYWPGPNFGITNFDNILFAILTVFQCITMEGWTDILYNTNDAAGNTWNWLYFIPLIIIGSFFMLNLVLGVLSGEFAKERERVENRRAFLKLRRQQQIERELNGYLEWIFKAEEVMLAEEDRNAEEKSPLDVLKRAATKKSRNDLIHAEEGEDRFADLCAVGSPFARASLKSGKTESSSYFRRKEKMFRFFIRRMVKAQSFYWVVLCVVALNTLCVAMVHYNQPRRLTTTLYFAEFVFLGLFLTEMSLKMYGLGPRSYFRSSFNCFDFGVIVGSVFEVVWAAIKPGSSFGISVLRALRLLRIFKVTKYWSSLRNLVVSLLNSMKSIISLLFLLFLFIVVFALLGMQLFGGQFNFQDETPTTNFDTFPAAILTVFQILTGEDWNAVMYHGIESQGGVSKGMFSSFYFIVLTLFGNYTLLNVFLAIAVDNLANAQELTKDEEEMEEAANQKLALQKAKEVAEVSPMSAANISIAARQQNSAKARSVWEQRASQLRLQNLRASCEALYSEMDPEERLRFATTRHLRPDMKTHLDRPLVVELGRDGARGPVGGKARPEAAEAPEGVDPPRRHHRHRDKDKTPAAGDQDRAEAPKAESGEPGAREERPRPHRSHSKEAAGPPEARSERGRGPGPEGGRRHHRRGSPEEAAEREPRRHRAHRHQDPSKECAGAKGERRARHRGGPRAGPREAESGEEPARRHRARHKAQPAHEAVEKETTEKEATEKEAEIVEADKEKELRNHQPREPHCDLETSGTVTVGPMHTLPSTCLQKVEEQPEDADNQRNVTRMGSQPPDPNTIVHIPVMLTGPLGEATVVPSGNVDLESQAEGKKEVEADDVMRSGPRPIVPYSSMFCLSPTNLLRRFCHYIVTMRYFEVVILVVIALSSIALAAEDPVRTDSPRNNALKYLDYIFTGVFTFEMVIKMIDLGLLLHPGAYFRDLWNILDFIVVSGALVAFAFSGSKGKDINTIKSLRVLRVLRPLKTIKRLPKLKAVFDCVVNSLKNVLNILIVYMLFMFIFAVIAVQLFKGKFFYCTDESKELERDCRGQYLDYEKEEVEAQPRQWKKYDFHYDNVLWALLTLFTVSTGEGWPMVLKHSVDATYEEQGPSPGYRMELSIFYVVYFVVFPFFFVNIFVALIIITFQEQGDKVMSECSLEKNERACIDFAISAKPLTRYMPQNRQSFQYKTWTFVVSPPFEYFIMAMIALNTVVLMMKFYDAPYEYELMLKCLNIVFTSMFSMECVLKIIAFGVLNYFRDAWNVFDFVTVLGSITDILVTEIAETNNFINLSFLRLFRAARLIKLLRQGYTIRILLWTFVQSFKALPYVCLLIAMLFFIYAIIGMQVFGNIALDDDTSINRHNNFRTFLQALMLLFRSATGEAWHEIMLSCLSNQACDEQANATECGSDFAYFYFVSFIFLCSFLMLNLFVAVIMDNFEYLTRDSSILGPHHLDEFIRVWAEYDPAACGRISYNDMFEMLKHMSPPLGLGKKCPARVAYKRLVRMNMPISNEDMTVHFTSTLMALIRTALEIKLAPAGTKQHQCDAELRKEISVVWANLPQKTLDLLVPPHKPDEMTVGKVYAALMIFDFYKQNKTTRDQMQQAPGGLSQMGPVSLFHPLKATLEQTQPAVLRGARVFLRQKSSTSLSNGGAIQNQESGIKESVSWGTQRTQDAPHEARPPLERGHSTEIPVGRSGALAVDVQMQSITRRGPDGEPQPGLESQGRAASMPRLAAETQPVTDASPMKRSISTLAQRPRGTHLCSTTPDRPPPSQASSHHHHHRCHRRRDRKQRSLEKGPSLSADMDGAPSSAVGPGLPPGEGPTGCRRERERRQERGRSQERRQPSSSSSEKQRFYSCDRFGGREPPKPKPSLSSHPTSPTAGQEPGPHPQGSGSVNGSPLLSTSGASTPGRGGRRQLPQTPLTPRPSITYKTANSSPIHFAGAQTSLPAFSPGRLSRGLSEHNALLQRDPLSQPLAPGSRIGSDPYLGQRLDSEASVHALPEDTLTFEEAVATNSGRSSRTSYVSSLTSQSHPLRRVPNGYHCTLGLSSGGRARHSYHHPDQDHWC

For `CC(C)(C)OC(=O)N1CSC[C@H]1C(=O)N[C@@H](CSCC1CCCCC1)C(=O)NC1CCN(Cc2ccccc2)CC1` [compound (I), (2R)—N-(1-benzylpiperidin-4-yl)-3-cyclohexylmethylthio-2-[(4R)-3-tert-butoxycarbonylthiazolidin-4-ylcarbonylamino]propaneamide], the solubility (Solubility in water) was about 1.25 µg/mL (≈ 2.07 µM), the bioavailability [1] was about 0.2% and the metabolic enzyme (CYP3A4) was “metabolized by CYP3A4”. The “N-type calcium channel inhibiting activity” value (N-type calcium channel) was “N-type calcium channel inhibiting activity”.
